US11510931B2, “Compositions and methods for treating ophthalmic conditions” (MEDICON PHARMACEUTICALS, INC., priority 2016, dated 2022)

Experiments:
[1] = Biodistribution of PS in porcine eyes (ex vivo); format: in vitro ADME, pig; settings: porcine eye ex vivo, 2% PS nanoparticle solution
Text: Biodistribution of PS in porcine eyes (ex vivo): Explanted pig eyes were exposed to PS nanoparticle solution (PS concentration was 2%) and treated as were the human eyes.

[2] = tested on: IL-6; test: IL-6 in culture medium of human conjunctival cells (ELISA); format: cell-based
Protocol: Cells were treated with PS 1×IC50 and 2 h later TNF-α was added to the medium to a final concentration of 10 ng/ml. Culture media were harvested 24 h later and the levels of TGF-β, IL-6 and IL-8 were determined by ELISA. Of note, the levels of IL-1β were below the limit of detection.

[3] = tested on: cataract surgery plus LPS-induced ocular inflammation in rabbits; test: Ocular inflammation after cataract surgery plus intravitreal LPS in rabbits; format: in vivo, rabbit; settings: PS 3.5% in nanoparticles
Protocol: The anti-inflammatory effect of PS in New Zealand white rabbits was evaluated following cataract surgery and administration of the proinflammatory bacterial lipopolysaccharide (LPS). Briefly, the lens was removed by phacoemulsification and aspiration and replaced with the hydrophobic acrylic intraocular lens (AR40e, AMO). Upon completion of the operation, 1 μg of LPS dissolved in 10 μl PBS was injected into the vitreous to induce uveitis.
Rabbits were treated with PS 3.5% formulated in nanoparticles or vehicle (nanoparticles without PS) applied topically as eye drops three times per day. The first application was made within 1 h after completion of surgery. The rabbits were examined daily and the aqueous humor (AH) was sampled by needle aspiration on days 1, 3, and 5 following the injection of LPS. The number of infiltrating cells in the AH was determined following standard methods. On day 5, the rabbits were euthanized and the implanted lens was removed and fixed in 2.5% glutaraldehyde and the number of inflammatory cells attached to the lens was examined under a dissecting microscope.

[4] = tested on: TGF-β; test: TGF-β in culture medium of human conjunctival cells (ELISA); format: cell-based
Protocol: Culture media were harvested 24 h later and the levels of TGF-β, IL-6 and IL-8 were determined by ELISA. Of note, the levels of IL-1β were below the limit of detection.

[5] = tested on: MMP-9; test: MMP-9 levels in lacrimal gland and aqueous humor of rabbits with DED (ELISA); format: in vivo, rabbit
Protocol: In an in vitro assay with purified MMP-1 (collagenase I) as […] it was shown that PS inhibited collagenase activity with an IC50 of <100 nM. In cultured human conjunctiva cells, PS suppressed MMP-1 by 75%-86%. In the lacrimal glands of rabbits with DED treated with PS eye drops, PS suppressed MMP-9 levels by 27% compared to vehicle treated rabbits (2.20±0.24 vs. 1.66±0.20 ng/mg protein; p<0.05; mean±SEM).

[6] = tested on: MMPs; test: General MMP activity in rabbit cornea (FRET peptide); format: in vivo
Protocol: The general activity of MMPs was determined in the corneas of three groups of rabbits. This MMP activity assay employs a fluorescence resonance energy transfer (FRET) peptide as a generic MMP indicator. Rabbits were treated with PS 1.6% or ketorolac 0.5% eye drops topically applied to their eyes or were not treated (naïve group). Results in relative fluorescence units (RFU)/mg protein (mean±SEM). Naïve=1,328±123; PS=749±218; Ketoroloac=1,272±106 (p<0.03 vs PS).
In an acute experiment, naïve rabbits were treated with either PS or ketorolac (both administered topically) for 1 h and determined the activity of MMP in the cornea. This assay determines the activity of MMPs collectively in a given tissue.

[7] = tested on: VEGF; test: VEGF immunohistochemistry in inferior lacrimal gland of rabbits with DED; format: in vivo, rabbit; settings: PS 3.5% eye drops three times per day, 1 week, vs vehicle
Protocol: Rabbits with ConA-induced dry eye disease (n=8 eyes/group) were treated with PS 3.5% eye drops three times per day or vehicle for 1 week. […] Immunohistochemistry for VEGF was performed on tissue sections and VEGF positive vessels were counted. PS reduced the number of VEGF positive cells by 73% bringing it to nearly normal values (the level in naïve rabbits)

[8] = tested on: IL-1β; test: IL-1β levels in the ILG of rabbits with DED (ELISA); format: in vivo, rabbit
Protocol: Using this model, we compared the effect of PS to that of cyclosporine and lifitegrast. Rabbits were treated for 6 days with PS as above or cyclosporine 0.05% or lifitegrast 5% eye drops 3×/day. In addition to determining TUBT, osmolarity and STT, we measured the levels of IL-8 and IL-1β in the ILGs of the rabbits harvested at euthanasia. Both of these cytokines are significant mediators of inflammation in DED. As shown in the table below, PS had statistically significant effects on TBUT, tear osmolarity, IL-8 and IL-1β levels. […] Of note, lifitegrast suppressed STT below the levels of the vehicle group and this suppression was statistically significant, but in the opposite direction for a useful therapeutic effect.
Moreover, for all three cytokines PS suppressed their unstimulated levels as well (62%, 84% and 4.7% reduction, respectively). In addition, PS suppressed the levels of IL-8 by 64% and IL-1β (not expressed by the cultured cells) by 61% in the ILG of rabbits treated with PS for 1 week compared to controls treated with vehicle (FIG. 8B). TGF-β was not detectable by the method in ILG homogenates. All these changes were statistically significant (p<0.001-0.04, except for the unstimulated TGF-β).

[9] = exposure/incubation 1/15 min/min
[10] = exposure/incubation 1/60 min/min
[11] = exposure/incubation 10/15 min/min
[12] = exposure/incubation 10/60 min/min
[13] = TNF-α-stimulated, PS 1×IC50, media at 24 h

SMILES: CCOP(=O)(OCC)OCCCCOC(=O)CC1=C(C)/C(=C/c2ccc([S+](C)[O-])cc2)c2ccc(F)cc21 (stereo not drawn) [PS, phosphosulindac]
- PS in Cornea [1, 9]: 51.5 µM
- PS in Lens [1, 9]: 9.5 µM
- PS in Sclera [1, 9]: 86.6 µM
- PS in Cornea [1, 10]: 99.8 µM
- PS in Lens [1, 10]: 4.8 µM
- PS in Sclera [1, 10]: 123.9 µM
- PS in Cornea [1, 11]: 97.1 µM
- PS in Lens [1, 11]: 1.9 µM
- PS in Sclera [1, 11]: 89.9 µM
- PS in Cornea [1, 12]: 170.6 µM
- PS in Lens [1, 12]: 2.1 µM
- PS in Sclera [1, 12]: 47.9 µM
- IL-6 reduction [2, 13]: 95%
- IL-6 reduction ([2]; unstimulated levels, PS 1×IC50): 84%
- ocular inflammation (clinical appearance) ([3]; eye drops three times per day, first 24 h of treatment, FIG. 13): essentially eliminated
- number of inflammatory cells in aqueous humor (AH) ([3]; day 3, eye drops three times per day, FIG. 14): < 70000 mL⁻¹
- inflammatory cells attached to the implanted lens ([3]; day 5): very few or no cells
- TGF-β reduction [4, 13]: 19%
- TGF-β reduction ([4]; unstimulated levels, PS 1×IC50, not statistically significant): 4.7%
- MMP-9 levels suppression compared to vehicle ([5]; lacrimal glands of rabbits with DED, PS eye drops): 27%
- MMP-9 levels ([5]; lacrimal glands of rabbits with DED, PS eye drops, mean±SEM): 1.66±0.20 ng/mg protein
- MMP-9 levels in the ILG and the aqueous humor ([5]; rabbits with DED treated with PS for 1 week): back to normal
- suppression of the activity of MMPs in the cornea ([6]; naïve rabbits, topical, 1 h): 43%
- general activity of MMPs in the corneas ([6]; rabbits, PS 1.6% or ketorolac 0.5% eye drops, mean±SEM): 749±218 RFU/mg protein
- reduction of the number of VEGF positive cells [7]: 73%
- IL-1β in the ILG ([8]; Con A DED rabbits, 6 days, eye drops 3×/day, PS nanoparticles, cyclosporine 0.05%, lifitegrast 5%, mean ± SEM): 8.4 ± 1.2 pg/mg protein
- suppression of IL-1β levels in the ILG ([8]; rabbits treated with PS for 1 week vs vehicle): 61%
